Values joined by “and” are separate entries in the source; they are usually repeats but may differ in a detail not shown here. Identical values can stand only once. Like-named read-outs stand apart in the source and are kept apart here.
Tests used:
Pim1 kinase = Pim1 kinase (Homo sapiens, UniProt P11309); experiment: Pim1 ATP depletion assay; assay type: biochemical;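 also: Luciferase-luciferin luminescence readout of residual ATP after PIM1 transfers phosphate to a peptide substrate, 40 µM ATP added, reaction run to roughly half ATP consumption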
Pim3 kinase = Pim3 kinase (Homo sapiens, UniProt Q86V86); experiment: Pim3 ATP depletion assay; assay type: biochemical; settings: read-out: IC50 (μM) PIM3
PC3 cells = experiment: Cell proliferation assay (CellTiter-Glo), PC3; assay type: cell-based; settings: Homo sapiens, PC-3
Protocol: HEL 92.1.7 cells (ATTC No. TIB-180, an erythroleukemia line derived from malignant peripheral blood), MV4-11 cells (ATCC No. CRL-9591, a human acute monocytic leukemia line) and PC3 cells (ATCC No. CRL-1435, a human prostatic adenocarcinoma line) were cultured in RPMI1640 supplemented with 10% FBS, sodium pyruvate and antibiotics. Cells were plated in the same medium at a density of 1000 cells per well into 96 well tissue culture plates, with outside wells vacant, on the day of assay.
Test compounds supplied in DMSO were diluted into DMSO at 500 times the desired final concentrations before dilution into culture media to 2 times final concentrations. Equal volumes of 2× compounds were added to the cells in 96 well plates and incubated at 37° C. for 3 days.
After 3 days plates were equilibrated to room temperature and equal volume of CellTiter-Glow Reagent (Promega) was added to the culture wells. The plates were agitated briefly and luminescent signal was measured with luminometer. The percent inhibition of the signal seen in cells treated with DMSO alone vs. cells treated with control compound was calculated and used to determine EC50 values (i.e., the concentration of a test compound that is required to obtain 50% of the maximum effect in the cells) for tested compounds, as shown in Example 763.

[1] = target: T1, human full length PKCE enzyme (Homo sapiens, UniProt Q02156); experiment: In vitro PKCE assay; assay type: biochemical; settings: 10 nM enzyme, 40 uM peptide substrate, 20 uM ATP, KinaseGlo Plus readout; read-out: PKCε IC50
T1 construct: human full length PKCE enzyme purchased from InVitrogen; purchased InVitrogen
T1 sequence (Q02156 1-737): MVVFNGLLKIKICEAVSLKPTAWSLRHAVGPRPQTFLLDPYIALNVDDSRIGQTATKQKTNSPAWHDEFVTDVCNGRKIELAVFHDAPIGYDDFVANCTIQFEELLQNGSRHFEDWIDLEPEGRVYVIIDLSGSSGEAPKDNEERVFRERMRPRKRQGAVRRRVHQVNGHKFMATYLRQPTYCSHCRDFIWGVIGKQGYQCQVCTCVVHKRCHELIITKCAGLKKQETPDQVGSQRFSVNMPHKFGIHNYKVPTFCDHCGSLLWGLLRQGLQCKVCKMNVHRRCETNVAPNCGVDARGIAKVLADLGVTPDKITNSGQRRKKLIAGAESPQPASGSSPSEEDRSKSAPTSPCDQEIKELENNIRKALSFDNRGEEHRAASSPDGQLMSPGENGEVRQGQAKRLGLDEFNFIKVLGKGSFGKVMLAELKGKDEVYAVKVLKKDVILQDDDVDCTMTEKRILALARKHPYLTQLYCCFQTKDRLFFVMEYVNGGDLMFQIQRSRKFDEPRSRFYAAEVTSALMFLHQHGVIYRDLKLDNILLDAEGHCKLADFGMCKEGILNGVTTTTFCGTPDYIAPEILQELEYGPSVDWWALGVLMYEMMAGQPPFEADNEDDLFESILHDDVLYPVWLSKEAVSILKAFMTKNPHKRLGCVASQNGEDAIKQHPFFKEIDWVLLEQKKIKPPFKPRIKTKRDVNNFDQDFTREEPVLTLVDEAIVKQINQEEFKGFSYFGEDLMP

KDR kinase = KDR kinase (Homo sapiens, UniProt P35968); experiment: KDR AlphaScreen assay; settings: KDR IC50 (μM)
Pim2 kinase = Pim2 kinase (Homo sapiens, UniProt Q9P1W9); experiment: Pim2 ATP depletion assay; assay type: biochemical; settings: read-out: IC50 (μM) PIM2;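 also: Luciferase-based luminescent readout of ATP remaining after PIM2 phosphorylates a BAD peptide, final 5 nM enzyme, 4 µM ATP, 10 µM peptide, 2.5% DMSO, run to roughly half ATP consumption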
HEL 92.1.7 cells = experiment: Cell proliferation assay (CellTiter-Glo), HEL 92.1.7; assay type: cell-based; settings: Homo sapiens, read-out: EC50 (μM) HEL 92.1.7
Summary of the method: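 CellTiter-Glo luminescence was read after 3-day compound exposure at 37 °C of cells plated at 1000/well in RPMI1640 with 10% FBS. Signal was normalised between DMSO-treated and control-compound-treated wells. EC50 is the concentration giving 50% of maximal effect.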

[2] = Pim1 ATP depletion assay, read-out: IC50 (μM) PIM1

Sequence of KDR kinase (P35968 20-1356): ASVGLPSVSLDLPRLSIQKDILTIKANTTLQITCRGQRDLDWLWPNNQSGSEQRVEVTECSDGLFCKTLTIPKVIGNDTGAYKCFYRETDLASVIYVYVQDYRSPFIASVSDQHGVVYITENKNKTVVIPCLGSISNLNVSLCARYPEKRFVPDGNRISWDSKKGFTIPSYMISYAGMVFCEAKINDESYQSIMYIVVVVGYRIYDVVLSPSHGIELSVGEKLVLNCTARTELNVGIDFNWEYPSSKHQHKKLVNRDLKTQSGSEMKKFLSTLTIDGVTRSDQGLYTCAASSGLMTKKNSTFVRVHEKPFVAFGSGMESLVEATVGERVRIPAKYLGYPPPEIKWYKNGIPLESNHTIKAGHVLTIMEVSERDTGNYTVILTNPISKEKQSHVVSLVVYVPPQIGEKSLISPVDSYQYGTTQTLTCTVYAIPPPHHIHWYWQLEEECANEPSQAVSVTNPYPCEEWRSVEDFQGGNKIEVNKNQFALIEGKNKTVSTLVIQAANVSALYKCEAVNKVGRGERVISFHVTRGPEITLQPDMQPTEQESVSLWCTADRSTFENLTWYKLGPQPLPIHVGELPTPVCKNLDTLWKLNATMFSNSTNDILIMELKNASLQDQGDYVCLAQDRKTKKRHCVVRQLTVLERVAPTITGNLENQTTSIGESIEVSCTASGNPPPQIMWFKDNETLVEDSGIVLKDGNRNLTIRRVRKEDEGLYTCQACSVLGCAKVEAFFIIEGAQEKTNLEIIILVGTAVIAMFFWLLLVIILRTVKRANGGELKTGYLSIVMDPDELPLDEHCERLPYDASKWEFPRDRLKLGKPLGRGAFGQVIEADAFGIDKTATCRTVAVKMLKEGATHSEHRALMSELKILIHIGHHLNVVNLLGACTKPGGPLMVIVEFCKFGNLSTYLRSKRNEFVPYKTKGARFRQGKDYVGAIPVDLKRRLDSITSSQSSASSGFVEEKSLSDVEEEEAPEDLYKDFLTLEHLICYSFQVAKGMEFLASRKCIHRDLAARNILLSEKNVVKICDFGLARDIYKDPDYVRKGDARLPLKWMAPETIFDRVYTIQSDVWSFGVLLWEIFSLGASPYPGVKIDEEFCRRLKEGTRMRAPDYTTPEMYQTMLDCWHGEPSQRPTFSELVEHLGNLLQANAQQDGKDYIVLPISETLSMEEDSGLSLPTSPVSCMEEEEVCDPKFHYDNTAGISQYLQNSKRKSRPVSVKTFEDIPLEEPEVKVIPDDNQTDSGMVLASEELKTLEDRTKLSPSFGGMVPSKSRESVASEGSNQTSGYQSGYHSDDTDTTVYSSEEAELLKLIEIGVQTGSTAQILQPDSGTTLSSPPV
Sequence of Pim2 kinase (Q9P1W9 whole entry): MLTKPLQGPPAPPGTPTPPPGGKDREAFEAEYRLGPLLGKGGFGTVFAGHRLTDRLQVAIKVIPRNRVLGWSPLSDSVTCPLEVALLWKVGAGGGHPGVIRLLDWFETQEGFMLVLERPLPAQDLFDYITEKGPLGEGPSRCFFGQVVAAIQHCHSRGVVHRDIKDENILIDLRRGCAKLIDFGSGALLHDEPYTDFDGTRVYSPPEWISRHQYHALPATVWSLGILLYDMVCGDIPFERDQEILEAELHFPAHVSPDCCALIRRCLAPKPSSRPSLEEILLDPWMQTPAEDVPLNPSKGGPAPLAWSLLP
Sequence of Pim1 kinase (P11309 whole entry): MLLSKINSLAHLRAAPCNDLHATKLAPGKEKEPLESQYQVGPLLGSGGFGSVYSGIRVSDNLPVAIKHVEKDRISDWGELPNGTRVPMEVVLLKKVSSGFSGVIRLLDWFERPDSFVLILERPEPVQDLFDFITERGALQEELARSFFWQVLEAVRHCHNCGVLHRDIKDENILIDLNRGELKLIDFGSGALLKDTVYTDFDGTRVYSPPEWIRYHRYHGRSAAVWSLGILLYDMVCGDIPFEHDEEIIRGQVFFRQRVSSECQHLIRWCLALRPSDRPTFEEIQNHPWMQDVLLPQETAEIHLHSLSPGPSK

SMILES | IC50 (Pim1 kinase; [2]) [µM] | IC50 (Pim3 kinase) [µM] | EC50 (PC3 cells) [µM] | IC50 [1] [µM] | IC50 (KDR kinase) | IC50 (Pim2 kinase) [µM] | EC50 (HEL 92.1.7 cells) [µM] | IC50 (Pim1 kinase) [µM]
Nc1ncc(-c2ccccc2F)nc1C(=O)Nc1cnccc1N1CCNCC1 [Example 363, 3-amino-6-(2-fluoro-phenyl)-pyrazine-2-carboxylic acid (4-piperazin-1-yl-pyridin-3-yl)-amide] | < 1 | < 1 | < 1 | < 1 | < 1 µM | – | – | –
Nc1nc(N)c(C(=O)Nc2ccncc2N2CCCCC2)nc1Cl [Example 120, 3,5-diamino-6-chloro-N-(3-piperidin-1-ylpyridin-4-yl)-pyrazine-2-carboxamide] | < 1 | < 1 | 1 to 5 | 1 to 10 | – | 1 to 10 | – | –
COc1ccc(-c2cnc(N)c(C(=O)Nc3cnccc3N3CCC(N)CC3)n2)cc1 [Example 367, 3-amino-6-(4-methoxy-phenyl)-pyrazine-2-carboxylic acid (4-amino-3,4,5,6-tetra-hydro-2H-[1,4′]bipyridinyl-3′-yl)-amide] | < 1 | < 1 | < 1 | < 1 | < 1 µM | – | – | –
Nc1nc(N)c(C(=O)Nc2[nH]c(=O)ncc2N2CCC(F)(F)CC2)nc1Cl [Example 161, 3,5-diamino-6-chloro-N-[5-(4,4-difluoropiperidin-1-yl)-2-oxo-2,3-dihydropyrimidin-4-yl]-pyrazine-2-carboxamide] | < 1 | < 1 | – | > 25 | < 1 µM | < 1 | > 10 | –
CS(=O)(=O)c1cccc(-c2ccc(N)c(C(=O)Nc3cnccc3N3CCC[C@H](N)C3)n2)c1 [Example 320] | < 1 | < 1 | – | 10 to 25 | > 25 µM | < 1 | > 10 | –
Nc1nc(N)c(C(=O)Nc2[nH]c(=O)ncc2N2CCCCC2)nc1Cl [Example 131, 3,5-diamino-6-chloro-N-(2-oxo-5-piperidin-1-yl-2,3-dihydro-pyrimidin-4-yl)pyrazine-2-carboxamide] | < 1 | < 1 | – | > 25 | < 1 µM | < 1 | < 1 | –
NCC1CCCN(c2ccncc2NC(=O)c2nccnc2N)C1 (stereo not shown) [Example 184, 3-amino-N-{4-[3-(aminomethyl)-piperidin-1-yl]pyridin-3-yl}pyrazine-2-carboxamide] | – | < 1 | – | < 1 | 10 to 25 µM | 1 to 10 | < 1 | < 1
COc1cc(-c2cnc(N)c(C(=O)Nc3ccccc3N3CCNCC3)n2)cc(OC)c1OC [Example 395, 3-amino-6-(3,4,5-trimethoxy-phenyl)-pyrazine-2-carboxylic acid (2-piperazin-1-yl-phenyl)-amide] | < 1 | 1 to 10 | 1 to 5 | – | – | > 25 | – | –
COc1ccc(F)c(-c2cnc(N)c(C(=O)Nc3ccccc3N3CCNCC3)n2)c1 [Example 396, 3-amino-6-(2-fluoro-5-methoxy-phenyl)-pyrazine-2-carboxylic acid (2-piperazin-1-yl-phenyl)-amide] | < 1 | < 1 | 1 to 5 | – | – | 1 to 10 | – | –
Nc1nccnc1C(=O)Nc1[nH]c(=O)ncc1N1CCCC(N)C1 (stereo not shown) [Example 235, 3-amino-N-[5-(3-aminopiperidin-1-yl)-2-oxo-2,3-dihydro-pyrimidin-4-yl]pyrazine-2-carboxamide] | < 1 | < 1 | – | < 1 | 10 to 25 µM | < 1 | > 10 | –
NCC1CCCN(c2ccncc2NC(=O)c2nc(Cl)c(N)nc2N)C1 (stereo not shown) [Example 182, 3,5-diamino-N-{4-[3-(amino-methyl)piperidin-1-yl]pyridin-3-yl}-6-chloropyrazine-2-carboxamide] | < 1 | < 1 | – | 1 to 10 | 1 to 10 µM | < 1 | < 1 | –

Second part, led by results:

IC50 (Pim1 kinase; [2]) [µM] | IC50 (Pim3 kinase) [µM] | EC50 (PC3 cells) [µM] | IC50 [1] [µM] | IC50 (KDR kinase) | IC50 (Pim2 kinase) [µM] | SMILES | EC50 (HEL 92.1.7 cells) [µM] | IC50 (Pim1 kinase) [µM]
< 1 | < 1 | < 1 | – | – | – | Nc1ncc(-c2ccccc2)nc1C(=O)Nc1ccccc1N1CCC(N)CC1 [Example 397, 3-amino-6-phenyl-pyrazine-2-carboxylic acid [2-(4-amino-piperidin-1-yl)-phenyl]-amide] | – | –
< 1 | < 1 | < 1 | < 1 | < 1 µM and 1 to 10 µM | – | Nc1ncc(-c2ccccc2)nc1C(=O)Nc1cnccc1N1CCC(N)CC1 [Example 364, 3-amino-6-phenyl-pyrazine-2-carboxylic acid (4-amino-3,4,5,6-tetrahydro-2H-[1,4′]bi-pyridinyl-3′-yl)-amide] | – | –
< 1 | 1 to 10 | < 1 | < 1 | – | 1 to 10 | Nc1nccnc1C(=O)Nc1ccncc1N1CCCCC1 [Example 122, 3-amino-N-(3-piperidin-1-yl-pyridin-4-yl)pyrazine-2-carbox-amide] | – | –
10 to 25 | > 25 | 1 to 5 | – | – | > 25 | Nc1nccnc1C(=O)Nc1c(F)cccc1N1CCC(N)CC1 [Example 209, 3-amino-N-[2-(4-aminopiperidin-1-yl)-6-fluorophenyl]pyrazine-2-carboxamide] | – | –
< 1 | < 1 | 1 to 5 | – | – | < 1 | COc1ccc(F)c(-c2cnc(N)c(C(=O)Nc3ccccc3N3CCC(N)CC3)n2)c1 [Example 393, 3-amino-6-(2-fluoro-5-methoxy-phenyl)-pyrazine-2-carboxylic acid [2-(4-amino-piperidin-1-yl)-phenyl]-amide] | – | –
< 1 | < 1 | < 1 | – | – | 1 to 10 | Nc1nccnc1C(=O)Nc1cc(F)ccc1N1CCC(N)CC1 [Example 208, 3-amino-N-[2-(4-aminopiperidin-1-yl)-5-fluorophenyl]pyrazine-2-carboxamide] | – | –
< 1 | < 1 | < 1 | – | – | 1 to 10 | Nc1nccnc1C(=O)Nc1ccc(F)cc1N1CCC(N)CC1 [Example 210, 3-amino-N-[2-(4-aminopiperidin-1-yl)-4-fluorophenyl]pyrazine-2-carboxamide] | – | –
< 1 | < 1 | 5 to 10 | – | – | 10 to 25 | Nc1nccnc1C(=O)Nc1cc(-c2ccn[nH]2)ccc1N1CCC(N)CC1 [Example 207, 3-amino-N-[2-(4-aminopiperidin-1-yl)-5-(1H-pyrazol-5-yl)phenyl]pyrazine-2-carbox-amide] | – | –
– | < 1 | – | < 1 | 1 to 10 µM | 1 to 10 | Nc1nccnc1C(=O)Nc1cnccc1N1CCCCC1 [Example 123, 3-amino-N-(4-piperidin-1-yl-pyridin-3-yl)pyrazine-2-carbox-amide] | < 1 | < 1
< 1 | < 1 | < 1 | < 1 | – | 1 to 10 | Nc1nccnc1C(=O)Nc1cnccc1N1CCC(N)CC1 [Example 193, 3-amino-N-[4-(4-aminopiperidin-1-yl)pyridin-3-yl]pyrazine-2-carboxamide] | – | –

Reference: US20140249135A1, “PIM KINASE INHIBITORS AND METHODS OF THEIR USE” (NOVARTIS AG, priority 2007, published 2014)
